These results are taken from patent US20250051321A1, “TRICYCLIC DERIVATIVE AND PREPARATION METHOD THEREFOR AND APPLICATION THEREOF” (SHANGHAI JEMINCARE PHARMACEUTICAL CO., LTD., priority 2021, published 2025).

For the first assay, the system named is plasma LPA 18:1 and LPA 18:2. Briefly: Human plasma ex vivo assay (LPA 18:1 / 18:2 by LC-MS/MS). It counts as biochemical. To be noted: 37° C., 2 hours, LPA 18:1, read-out: Human plasma ex vivo assay IC50 (18:1 LPA). Here is the method: The collected plasma was centrifuged at 4000 rpm for 15 minutes at 4° C. The supernatant was aliquoted into a 96-well plate (25 μL per well), sealed, and frozen at −80° C. for further use.
LPA 17:0 powder was dissolved in a mixed solution of water: isopropanol: formic acid (1:1:1) to a final concentration of […]. The mixture was aliquoted and frozen at −20° C.
1 volume of formic acid was added to 1000× methanol, mixed well, and stored at 4° C. a) The 96-well plate containing frozen plasma was removed from the −80° C. freezer and thawed on ice at room temperature. b) 6 μL of 50× LPA 17:0 (internal standard) and 264 μL of 0.1% FA were added to a clean well of the 96-well plate; the final concentration of LPA 17:0 (internal standard) was 50 nM. c) 6× compound was 1:3 serially diluted to a total of 8 concentrations, and 5 μL of the compound per well was added to the 96-well plate containing plasma. The maximum final concentration of the compound was 10 μM, and the final concentration of DMSO was 0.1%. The plate was centrifuged at 300 rpm for 30 seconds. The DMSO control sample reacted for 0 hours was used as the minimum value (Min), and the DMSO control sample reacted for 2 hours was used as the maximum value (Max). […]
d) The DMSO sample reacted for 0 hours was rapidly transferred to 0.1% FA solution containing the internal standard in step b) to terminate the reaction and precipitate plasma proteins. e) The 96-well plate containing plasma and compounds was rapidly incubated in a 37° C. incubator for 2 hours. After the incubation, 6 μL of 10× LPA 17:0 and 264 μL of 0.1% FA were added to each well to terminate the reaction and precipitate plasma proteins. […]
f) All the samples were mixed well with a pipette, and centrifuged at 4000 rpm for 10 minutes at 4° C. 150 μL of the supernatant was added to a 96-well U-bottom plate (Thermo 267245), sealed with silica gel, and then loaded. The contents of LPA 18:1 and LPA 18:2 in the samples were detected by LC-MS/MS system.
LPA 18:1(or 18:2) relative content=LPA 18:1(or 18:2) peak area/LPA 17:0 peak area Percentage reduction (%) in plasma LPA18:1(or 18:2)=(Max−X)/(Max−Min)*100 Max: LPA 18:1 (or 18:2) relative content of the DMSO sample reacted for 2 hours Min: LPA 18:1 (or 18:2) relative content of the DMSO sample reacted for 0 hours X: LPA 18:1 (or 18:2) relative content of the sample after compound treatment for 2 hours The IC50 of the compounds was calculated by fitting a nonlinear regression through percentage reduction in plasma LPA 18:1 (or 18:2) and log value of compound concentration using the software GraphPad Prism 8.
Y=Bottom+(Top−Bottom)/(1+10^((Log IC50−X)*Hill Slope))
As for `Cc1cc(N2CC3(CN(C(=O)C(C)(C)O)C3)C2)nc2c(N(C)c3nc(-c4ccc(F)cc4)c(C#N)s3)c3c(nc12)[C@](C)(O)CC3` (single isomer, unassigned) [Example E25-a], the IC50 (commonly the concentration that inhibits the measured activity by half) was found to be 0.372 µM. Still for that read-out and setting: the figure for `Cc1cc(N2CC3(CN(C(=O)C(C)(C)O)C3)C2)nc2c(N(C)c3nc(-c4ccc(F)cc4)c(C#N)s3)c3c(nc12)[C@@H](O)CC3` (single isomer, unassigned) [Example E32-a] is 0.323 µM; for `Cc1cc(N2CC3(CN(C(=O)C(C)(C)O)C3)C2)nc2c(N(C)c3nc(-c4ccc(F)cc4)c(C#N)s3)c3c(nc12)[C@H](O)CC3` (single isomer, unassigned) [Example E32-b] it is 0.373 µM; for `CN(c1nc(-c2ccc(F)cc2)c(C#N)s1)c1c2c(nc3c(F)cc(N4CC5(CN(C(=O)C(C)(C)O)C5)C4)cc13)[C@@](C)(O)CC2` (single isomer, unassigned) [Example E35-a] it is 0.388 µM.

For `CN(c1nc(-c2ccc(F)cc2)c(C#N)s1)c1c2c(nc3c(F)cc(N4CC5(CN(C(=O)[C@@H]6CCCO6)C5)C4)cc13)[C@@H](O)CC2` (single isomer, unassigned) [Example E54-a], the IC50 is 0.725 µM.

As to `CN(c1nc(-c2ccc(F)cc2)c(C#N)s1)c1c2c(nc3ccc(N4CCN(CC(=O)N5CC(O)C5)CC4)nc13)COC2` [Example A13], the IC50 worked out at 0.194 µM. Same read-out and setting: the value for `CN(c1nc(-c2ccc(F)cc2)c(C#N)s1)c1c2c(nc3ccc(N4CC5(CN(C(=O)C(C)(C)O)C5)C4)nc13)CC2` [Example C24] was 0.232 µM; that for `CN(c1nc(-c2ccc(F)cc2)c(C#N)s1)c1c2c(nc3c(F)cc(N4CC5(CN(C(=O)CN6CC[C@@H](O)C6)C5)C4)cc13)C(O)CC2` (stereo partly drawn) [Example E27] was 0.287 µM; that for `CN(c1nc(-c2ccc(F)cc2)c(C#N)s1)c1c2c(nc3c(F)cc(N4CC5(CN(C(=O)CN6CC[C@H](O)C6)C5)C4)cc13)C(O)CC2` (stereo partly drawn) [Example E28] was 0.298 µM. The same measure, in the same setting: the figure for `CN(c1nc(-c2ccc(F)cc2)c(C#N)s1)c1c2c(nc3c(F)cc(N4CC5(CN(C(=O)C(C)(C)N)C5)C4)cc13)C(O)CC2` (stereo not drawn) [Example E29] is 0.526 µM; for `COC(C)(C)C(=O)N1CC2(C1)CN(c1cc(F)c3nc4c(c(N(C)c5nc(-c6ccc(F)cc6)c(C#N)s5)c3c1)CCC4O)C2` (stereo not drawn) [Example E30] it is 0.165 µM. On the same count and under the same terms, the value for `CN(c1nc(-c2ccc(F)cc2)c(C#N)s1)c1c2c(nc3c(F)cc(N4CC5(CN(CC(=O)N6CC[C@@H](O)C6)C5)C4)cc13)C(O)CC2` (stereo partly drawn) [Example E31] was 0.222 µM.

As to `CC(C(=O)N1CC(O)C1)N1CCN(c2cc(F)c3nc4c(c(N(C)c5nc(-c6ccc(F)cc6)c(C#N)s5)c3c2)CCC4O)CC1` (stereo not drawn) [Example E33], the concentration for half-maximal inhibition (IC50) is 0.323 µM. In the case of `CN(c1nc(-c2ccc(F)cc2)c(C#N)s1)c1c2c(nc3c(F)cc(N4CC5(CN(C(=O)C(C)(C)O)C5)C4)cc13)C(C)(O)CC2` (stereo not drawn) [Example E35], the 50% inhibitory concentration (IC50) amounted to 0.301 µM. Same read-out and setting: the figure for `CN(c1nc(-c2ccc(F)cc2)c(C#N)s1)c1c2c(nc3c(F)cc(N4CC5(CN(C(=O)C(C)(C)O)C5)C4)cc13)C(=O)CC2` [Example E36] is 0.371 µM; for `CN(c1nc(-c2ccc(F)cc2)c(C#N)s1)c1c2c(nc3c(F)cc(N4CC5(CN(C(=O)CO)C5)C4)cc13)C(O)CC2` (stereo not drawn) [Example E39] it is 0.317 µM.

Still in this assay, the particulars now being: 37° C., 2 hours, LPA 18:2, read-out: Human plasma ex vivo assay IC50 (18:2 LPA).
As for `Cc1cc(N2CC3(CN(C(=O)C(C)(C)O)C3)C2)nc2c(N(C)c3nc(-c4ccc(F)cc4)c(C#N)s3)c3c(nc12)[C@](C)(O)CC3` (single isomer, unassigned) [Example E25-a], the half-inhibitory concentration (IC50) is 0.366 µM.

With `Cc1cc(N2CC3(CN(C(=O)C(C)(C)O)C3)C2)nc2c(N(C)c3nc(-c4ccc(F)cc4)c(C#N)s3)c3c(nc12)[C@@H](O)CC3` (single isomer, unassigned) [Example E32-a], the IC50 worked out at 0.331 µM.

Take `Cc1cc(N2CC3(CN(C(=O)C(C)(C)O)C3)C2)nc2c(N(C)c3nc(-c4ccc(F)cc4)c(C#N)s3)c3c(nc12)[C@H](O)CC3` (single isomer, unassigned) [Example E32-b]: the IC50 is 0.489 µM. As to `CN(c1nc(-c2ccc(F)cc2)c(C#N)s1)c1c2c(nc3c(F)cc(N4CC5(CN(C(=O)C(C)(C)O)C5)C4)cc13)[C@@](C)(O)CC2` (single isomer, unassigned) [Example E35-a], the IC50 is 0.284 µM. `CN(c1nc(-c2ccc(F)cc2)c(C#N)s1)c1c2c(nc3c(F)cc(N4CC5(CN(C(=O)[C@@H]6CCCO6)C5)C4)cc13)[C@@H](O)CC2` (single isomer, unassigned) [Example E54-a]: the concentration for half-maximal inhibition (IC50) is 0.483 µM.

For the molecule `CN(c1nc(-c2ccc(F)cc2)c(C#N)s1)c1c2c(nc3ccc(N4CCN(CC(=O)N5CC(O)C5)CC4)nc13)COC2` [Example A13], the 50% inhibitory concentration (IC50) turned out to be 0.206 µM. On the same count and under the same terms, the value for `CN(c1nc(-c2ccc(F)cc2)c(C#N)s1)c1c2c(nc3ccc(N4CC5(CN(C(=O)C(C)(C)O)C5)C4)nc13)CC2` [Example C24] was 0.221 µM; that for `CN(c1nc(-c2ccc(F)cc2)c(C#N)s1)c1c2c(nc3c(F)cc(N4CC5(CN(C(=O)CN6CC[C@@H](O)C6)C5)C4)cc13)C(O)CC2` (stereo partly drawn) [Example E27] was 0.314 µM. Take `CN(c1nc(-c2ccc(F)cc2)c(C#N)s1)c1c2c(nc3c(F)cc(N4CC5(CN(C(=O)CN6CC[C@H](O)C6)C5)C4)cc13)C(O)CC2` (stereo partly drawn) [Example E28]: the IC50 is 0.271 µM. Same read-out and setting: the value for `CN(c1nc(-c2ccc(F)cc2)c(C#N)s1)c1c2c(nc3c(F)cc(N4CC5(CN(C(=O)C(C)(C)N)C5)C4)cc13)C(O)CC2` (stereo not drawn) [Example E29] was 0.522 µM; that for `COC(C)(C)C(=O)N1CC2(C1)CN(c1cc(F)c3nc4c(c(N(C)c5nc(-c6ccc(F)cc6)c(C#N)s5)c3c1)CCC4O)C2` (stereo not drawn) [Example E30] was 0.15 µM. On the same count and under the same terms, the value for `CN(c1nc(-c2ccc(F)cc2)c(C#N)s1)c1c2c(nc3c(F)cc(N4CC5(CN(CC(=O)N6CC[C@@H](O)C6)C5)C4)cc13)C(O)CC2` (stereo partly drawn) [Example E31] was 0.164 µM. The same measure, in the same setting: the figure for `CC(C(=O)N1CC(O)C1)N1CCN(c2cc(F)c3nc4c(c(N(C)c5nc(-c6ccc(F)cc6)c(C#N)s5)c3c2)CCC4O)CC1` (stereo not drawn) [Example E33] is 0.154 µM; for `CN(c1nc(-c2ccc(F)cc2)c(C#N)s1)c1c2c(nc3c(F)cc(N4CC5(CN(C(=O)C(C)(C)O)C5)C4)cc13)C(C)(O)CC2` (stereo not drawn) [Example E35] it is 0.393 µM. Take `CN(c1nc(-c2ccc(F)cc2)c(C#N)s1)c1c2c(nc3c(F)cc(N4CC5(CN(C(=O)C(C)(C)O)C5)C4)cc13)C(=O)CC2` [Example E36]: the IC50 was determined as 0.308 µM. The same measure, in the same setting: the value for `CN(c1nc(-c2ccc(F)cc2)c(C#N)s1)c1c2c(nc3c(F)cc(N4CC5(CN(C(=O)CO)C5)C4)cc13)C(O)CC2` (stereo not drawn) [Example E39] was 0.398 µM.

As for `CN(c1nc(-c2ccc(F)cc2)c(C#N)s1)c1c2c(nc3c(F)cc(N4CCN(CC(=O)N5CC[C@@H](O)C5)CC4)cc13)C(O)CC2` (stereo partly drawn) [Example E40], the IC50 is 0.337 µM.
